Results: ChEMBL document CHEMBL4699511, “Cedrol, a Sesquiterpene Alcohol, Enhances the Anticancer Efficacy of Temozolomide in Attenuating Drug Resistance via Regulation of the DNA Damage Response and MGMT Expression” (J Nat Prod, 2020)
The source made the active and inactive calls. The rule behind the calls is not given here.

Key:
RG2 [1] = test: Inhibition of p38 phosphorylation at Tyr182 residues in rat RG2 cells at 206 uM after 48 hrs by Western blot analysis (reference value: 1); assay type: cell-based
RG2 [2] = test: Induction of DNA damage in rat RG2 cells assessed as Chk1 phosphorylation at ser345 at 206 uM after 48 hrs by Western blot analysis (reference value: 1); assay type: functional
RG2 [3] = test: Induction of apoptosis in rat RG2 cells assessed as phosphorylated caspace-9 expression at 206 uM after 48 hrs by Western blot analysis (reference value: 1); assay type: functional
DBTRG-05MG [4] = test: Induction of DNA damage in human DBTRG-05MG cells assessed as ATM phosphorylation at ser1981 residues at 206 uM after 48 hrs by Western blot analysis (reference value: 1); assay type: functional
RG2 [5] = test: Induction of apoptosis in rat RG2 cells assessed as cleaved caspace-9 expression at 112.4 uM after 48 hrs in presence of TMZ by Western blot analysis (reference value: 1); assay type: functional
RG2 [6] = test: Induction of DNA damage in rat RG2 cells assessed as ATM phosphorylation at ser1981 residues at 112.4 uM after 48 hrs by Western blot analysis (reference value: 1); assay type: functional
[7] = Effect on AKT expression in rat RG2 cells at 112.4uM after 48 hrs in presence of TMZ by Western blot analysis (reference value: 1); assay type: functional
RG2 [8] = test: Induction of apoptosis in rat RG2 cells assessed as increase in chromatin condensation at 112.4 uM after 48 hrs by TUNEL assay; assay type: functional, cell-based
DBTRG-05MG [9] = test: Induction of cell cycle arrest in human DBTRG-05MG cells assessed as p21 expression at 112.4 uM after 48 hrs in presence of TMZ by Western blot analysis (reference value: 1); assay type: functional
DBTRG-05MG [10] = test: Induction of cell cycle arrest in human DBTRG-05MG cells assessed as accumulation at G2/M phase at 112.4 uM after 24 hrs by propidium iodide staining based flow cytometric analysis (reference value: 30.08 +/- 0.1%); assay type: functional
RG2 [11] = test: Inhibition of p38 phosphorylation at Tyr182 residues in rat RG2 cells at 112.4uM after 48 hrs in presence of TMZ by Western blot analysis (reference value: 1); assay type: cell-based
DBTRG-05MG [12] = test: Synergistic cytotoxicity against human DBTRG-05MG cells assessed as combination index at 89.9 uM after 48 hrs in presence of 103 uM TMZ by MTT assay; assay type: functional
DBTRG-05MG [13] = test: Synergistic cytotoxicity against human DBTRG-05MG cells assessed as synergistic effect index at 112.4 uM after 48 hrs in presence of 412.1 uM TMZ by MTT assay; assay type: functional
DBTRG-05MG [14] = test: Inhibition of ERK phosphorylation at Tyr204 residues in human DBTRG-05MG cells at 112.4uM after 48 hrs by Western blot analysis (reference value: 1); assay type: cell-based

Structure (SMILES) | fold change (FC) (RG2 [1]) | fold change (FC) (RG2 [2]) | fold change (FC) (RG2 [3]) | fold change (FC) (DBTRG-05MG [4]) | fold change (FC) (RG2 [5]) | fold change (FC) (RG2 [6]) | fold change (FC) [7] | Activity (RG2 [8]) | fold change (FC) (DBTRG-05MG [9]) | Activity (DBTRG-05MG [10]) [%] | fold change (FC) (RG2 [11]) | CI (DBTRG-05MG [12]) | Activity_index (DBTRG-05MG [13]) | fold change (FC) (DBTRG-05MG [14])
Cn1nnc2c(C(N)=O)ncn2c1=O [TEMOZOLOMIDE] | 1.3 | 1.8 | 0.8 | 2.8 | – | – | – | – | – | – | – | – | – | –
C[C@@H]1CC[C@H]2C(C)(C)[C@H]3C[C@@]12CC[C@@]3(C)O [CEDROL] | – | – | – | – | 1.8 | 1 | 0.4 | Active | 2.7 | 26.38 | 1.8 | 0.74 | 0.86 | 0.9
